One assay has as its system SCN explants. Kind of assay: Ex vivo circadian period, SCN explants of Per2::Luc knock-in mice. More on the design: species or system mouse. As to conditions: 18 µM. Here is the method:
Next, we applied the light-dependent period control to the tissue level using explants of Per2::Luc knock-in reporter mice. The mice express PER2-luciferase fusion protein under control of the endogenous Per2 promoter. […] The spleen explants were treated with thermally adapted trans-9, then irradiated with green light (λmax = 530 nm) or kept in dark, and luminescence rhythms were measured (Fig. 6a, b). […] In addition to the peripheral clock in spleen, we investigated the effect of compound 9 on the central clock in the hypothalamic suprachiasmatic nucleus (SCN) that controls behavioral rhythms. […]
(§1) Fig. 6 Ex vivo photo-modulation of the circadian period in mouse tissue explants. a–c The spleen explants of the Per2::Luc knock-in reporter mice were applied with 12 µM compound 9 and irradiated with green light (λmax = 530 nm) for 0 min (dark, black) or 30 min (green). Luminescence rhythms were then monitored and shown in a (mean of n = 5 for dark and n = 6 for green light). […] Luminescence is given in arbitrary units. n = 5 biologically independent samples for dark and n = 6 for green light. […] Luminescence rhythms of a representative sample for each condition are shown in d. […]
To harvest the suprachiasmatic nucleus (SCN), Per2::Luc heterozygote neonatal mice at postnatal day four to seven were euthanized. […] Circadian period was calculated by a cosine curve fitting. […]

A further assay has as its system spleen explants. Kind of assay: Ex vivo circadian period, spleen explants of Per2::Luc knock-in mice. More on the design: species or system mouse. Particulars: 12 µM. Here is the method:
Next, we applied the light-dependent period control to the tissue level using explants of Per2::Luc knock-in reporter mice. The mice express PER2-luciferase fusion protein under control of the endogenous Per2 promoter. […] The spleen explants were treated with thermally adapted trans-9, then irradiated with green light (λmax = 530 nm) or kept in dark, and luminescence rhythms were measured (Fig. 6a, b). […] In addition to the peripheral clock in spleen, we investigated the effect of compound 9 on the central clock in the hypothalamic suprachiasmatic nucleus (SCN) that controls behavioral rhythms. […] Together, compound 9 enabled light-dependent inducible control of the circadian period at both cellular and tissue levels.
as §1, with “light). Baseline-subtracted data are shown in b. Period changes compared to a DMSO control are plotted in c.” for “light).”

The values that follow come from PMC8155176, “Reversible modulation of circadian time with chronophotopharmacology” (Nature Communications, 2021).

For the compound `CC(C)n1cnc2c(NCc3ccc(F)c(/N=N/c4c(F)cccc4F)c3F)ncnc21` [Compound 9], in the assay with SCN explants (applied on day 4), the “period effect of thermally adapted compound” value is listed as “induced period lengthening”. In addition, the “period effect upon green light irradiation” value in the assay on SCN explants (green light on day 8) is reported as “reduced”. For the same compound, the “period effect after green light irradiation” value in the assay on spleen explants (530 nm 30 min) is given as “suppressed the period-lengthening effect”. In addition, the “period effect vs DMSO control, dark” value in the assay with spleen explants (dark) is “period lengthening”.
